# US20260125428A1, “SYNTHETIC TRIPLEX PEPTIDE NUCLEIC ACID-BASED INHIBITORS FOR CANCER THERAPY” (University of Connecticut, priority 2022, published 2026)
# What was measured:
# U2932 derived xenografts = experiment: Tumor growth and survival study in U2932 derived xenograft mice; assay type: in vivo; settings: 5 mg/kg systemic on day 1, 4, 7, and 10
# Experimental: FIGS. 7A-C show survival data of mice after systemic administration of indicated PNAs. (7A) Graph representing the tumor volume of U2932 xenografts after systemic treatment with indicated PNAs (n≥4 mice per group). PNAs were administered systemically on day 1, 4, 7, and 10 (n≥4 mice per group). (7B) The survival of U2932 derived xenograft mice after treatment with γPNA2-NLS, γPNA3, and ScrγPNA4-NLS at 5 mg/kg dose in comparison to the control (saline) mice. (7C) Complete blood count analysis of mice from different groups at the end of the study. RBC: red blood cells; WBC: white blood cells; HGB: hemoglobin; PLT: platelets; HCT: hematocrit; MCH: […]. (D) Blood chemistry analysis of mice from different groups at the end of the study. ALT: alanine transaminase; AST: aspartate transaminase; BUN: blood urea nitrogen; LDH: Lactate dehydrogenase. Results are presented as mean±SEM (n≥4).
# In vivo studies in xenograft mice model: U2932 derived xenografts were generated by implanting 10 million cells subcutaneously on the lower right flank of the female NSG mice (NOD.Cg-Prkdc^scidIl2rg^tm1Wj1/SzJ, #005557, Jackson Laboratories, USA) of 5-6 weeks. The mice were maintained in the animal care facility at the University of Connecticut following the required Institutional Animal Care and Use Committee guidelines (IACUC). Mice developed palpable tumors after 3-4 weeks of implantation. Tumor dimensions including length (l), breadth (b), and height (h) were measured using a caliper and volume was calculated using the formula for ellipsoid (0.5236×lbh).
# Survival study: Mice bearing tumors about 100-150 mm^3 were divided into 4 groups. Mice were treated with either γPNA2-NLS, γPNA3, Scr-γPNA4-NLS, or saline. PNAs were administered at 5 mg/kg dose on day 1, 4, 7, and 10. The change in tumor volume was measured every day. Mice were euthanized when the tumor volume reached 2000 mm^3. Blood was collected via cardiac punter in 1.5 ml tubes containing 0.5 M EDTA. Organs including tumor, liver, kidney, spleen, heart and lung were collected. Tumor fraction and all organs were kept in 10% formalin and submitted for histology. The complete blood count analysis was performed on the collected blood samples using Sysmex CBC analyzer. Plasma was separated from the blood samples and submitted to Antech diagnostic for blood chemistry analysis to quantify the levels of alanine transaminase, lactate dehydrogenase, aspartate transaminase and blood urea nitrogen.
# C-Myc oncogene [1] = experiment: Gene expression (RT-PCR) of C-Myc and downstream targets in Raji cells; assay type: cell-based, human; settings: 24 h, 8 μM
# Experimental: (§1) FIGS. 4A-F show effect of cellular uptake of indicated PNAs. (4A) Expression levels of C-Myc oncogene in U2932 (DLBCL), Raji and Daudi cells (Burkitt's lymphoma) in comparison to the peripheral blood mononuclear cells (PBMC). (4B) Cell viability of U2932 cells after 24 h treatment with indicated PNAs at different doses. (4C) Cell viability of Raji cells after 24 h treatment with indicated PNAs at different doses. (4D) Gene expression levels of C-Myc oncogene and its downstream targets including MCL1 and EZH2 in U2932 cells after 24 h of treatment with γPNA1-NLS, γPNA2-NLS, and ScrγPNA4-NLS at 8 μM. (4E) Gene expression levels of C-Myc oncogene and its downstream targets including BCL2 and EZH2 in Raji cells after 24 h of treatment with γPNA1-NLS, γPNA2-NLS, and ScrγPNA4-NLS at 8 μM. (4F) Gene expression levels of C-Myc in U2932 cells after 24 h treatment with γPNA2-NLS and ScrγPNA4-NLS at indicated doses.
# (§2) Gene expression: The levels of mRNA were measured in different cell lines using real time-polymerase chain reaction (RT-PCR). Both untreated (PBMC, U2932, Raji, Daudi) and PNA treated lymphoma cells were collected at the end of treatment. Total RNA was extracted using Qiagen RNeasy® kit (USA) and concentration was measured by Nanodrop™. cDNA was synthesized using high capacity cDNA reverse transcription kit (Applied Biosystem, USA) following the recommended cycling conditions. Taqman® gene expression assay for C-Myc, EZH2, BCL2, MCL1 and GAPDH were used to amplify the respective mRNAs using the specified cycling conditions in the CFX Real-Time PCR detection system. GAPDH was used as the reference gene and fold change in mRNA expression was obtained by normalizing against the untreated cells or cells treated with HDAC inhibitors.
# C-Myc oncogene [2] = experiment: Gene expression (RT-PCR) of C-Myc and downstream targets in U2932 cells; assay type: cell-based, human; settings: RT-PCR, 24 h, 8 μM
# Experimental: as §1, §2
# U2932 cells = experiment: Viability of U2932 cells, combination of PNAs with HDAC inhibitors and other drugs
# Experimental: FIGS. 9A-D show cell viability after treatment with indicated PNAs. (9A) The viability of U2932 cells after treatment with γPNA1-NLS (8 μM), romidepsin (10 nM) and combination of γPNA1-NLS with romidepsin over 96 hours. (9B) The viability of U2932 cells after treatment with γPNA2-NLS (8 μM), romidepsin (10 nM) and combination of γPNA2-NLS with romidepsin over 96 hours. (9C) Fold change in C-Myc levels after combination of γPNA1-NLS and γPNA2-NLS with romidepsin in comparison to only romidepsin treatment. (9D) Fold change in BCL2 levels after combination of γPNA1-NLS and γPNA2-NLS with romidepsin in comparison to only romidepsin treatment.
# FIGS. 10A-F show the viability of U2932 cells after indicated treatment. (10A) Viability of U2932 cells after treatment with γPNA2-NLS […], vorinostat (2.5 μM) and combination of γPNA2-NLS with vorinostat over 96 hours. (10B) The viability of U2932 cells after treatment with γPNA2-NLS (8 μM), valproic acid (2 mM) and combination of γPNA2-NLS with valproic acid over 96 hours. […] (10E) The viability of U2932 cells after treatment with CHOP (cyclophosphamide, vincristine, doxorubicin, prednisone) and combination of γPNA2-NLS with CHOP at different doses.
# Cell viability: U2932 and Raji cells were seeded in 96 well plates at 20,000 cells/well. PNAs were added to the media at different concentrations (1, 2, 4, and 8 μM). […] The cell viability was then measured via trypan blue staining on day 1, 2, and 4.
# C-Myc oncogene [3] = experiment: Gene expression (RT-PCR) in U2932 cells after combination treatment; assay type: cell-based, human
# Experimental: as §2
compound,measurement,setting,value
"X3TCCCTCCCTCCGTTCTTTTTCCCX4 (JJJTJJJT linker N-term; C-terminal lysine; gammaPNA; misc_feature 1 JJJTJJJT-linker- is covalently linked to the backbone, wherein J is pseudoisocytosine and the linker is 11-Amino-3,6,9-Trioxaundecanoic Acid (DCHA), represented as -OOO-; misc_feature 23 K is covalently linked to the backbone; modified_base 1..23 OTHER; peptide nucleic acid) [γPNA3, site 2 gamma tail clamp PNA without NLS]",tumor growth in comparison to the control groups,U2932 derived xenografts,significantly reduced tumor growth
same,survival of the mice,U2932 derived xenografts; saline 21 days,23 days
"JJJJTTJJ-OOO-CCTTCCCCACCCTCCCCACCCTC-K-OOO-VKRKKKP (gamma PNA tail clamp; linkers; NLS peptide; misc_feature 1 JJJJTTJJ-linker- is covalently linked to the backbone, wherein J is pseudoisocytosine and the linker is 11-Amino-3,6,9-Trioxaundecanoic Acid (DCHA), represented as -OOO-; misc_feature 23 -K-linker-SEQ ID NO: 5 is covalently linked to the backbone, wherein the linker is 11-Amino-3,6,9-Trioxaundecanoic Acid (DCHA), represented as -OOO-; modified_base 1..23 OTHER; peptide nucleic acid) [γPNA1-NLS]",change in levels of C-Myc (in words),C-Myc oncogene [1],did not observe any change in levels of C-Myc
same,levels of downstream targets BCL2 and EZH2,C-Myc oncogene [1],no change in their levels
same,change in levels of C-Myc (in words),C-Myc oncogene [2],did not observe any change in levels of C-Myc
same,levels of downstream targets MCL1 and EZH2,C-Myc oncogene [2],no change in their levels
same,combination effect with romidepsin on viability (in words),"U2932 cells; U2932 cells, romidepsin 10 nM, PNA 8 uM",synergistic activity
same,"decrease in U2932 cell viability, combination with romidepsin","U2932 cells; romidepsin 10 nM pretreatment 24 h, PNA 8 uM, day 4",approximately 80%
same,"BCL-2 levels, combination with romidepsin in comparison to only romidepsin",C-Myc oncogene [3]; day 4,reduced levels
same,"decrease in C-Myc levels, combination with romidepsin compared with only romidepsin","C-Myc oncogene [3]; day 4, PNA 8 uM, romidepsin 10 nM",approximately 50%
"C/C=C1\NC(=O)[C@H]2CSSCC/C=C/[C@H](CC(=O)N[C@H](C(C)C)C(=O)N2)OC(=O)[C@H](C(C)C)NC1=O [Romidepsin, reference compound]",cytotoxicity at 0.01 µM,"U2932 cells; Homo sapiens, U2932, 96 h, read-out: decrease in viability, alone",60%
